Data as given in US20120308567A1, “USE OF TYROSINE KINASE INHIBITORS FOR TREATMENT OF PROLACTINOMA” (CEDARS-SINAI MEDICAL CENTER, priority 2010, published 2012).

Tests used:
human prolactinoma cells = assay: Realtime PCR of PRL in primary human prolactinoma cell cultures; format: cell-based; conditions: Tumor B; 0.1-5 μM, 24 hr, in the absence of added EGF
Procedure: A, B, D, and E. After trans-sphenoidal surgery of human prolactinomas, tumor cells were cultured. […] PRL levels in culture media were measured using RIA (B). H&E and PRL staining of tumor and confocal immunocytochemistry of EGFR and HER2 (Tumor A) (C), or for Tumor B (F). Magnification of these figures was 100×. […] PRL levels in culture media were measured using RIA (E). Prolactinoma cells (Tumor B) were treated with U0126 (0.1-5 μM) for 24 hr, and Realtime PCR of PRL performed (G).
Total RNA was extracted with Trizol reagent (Invitrogen) according to instructions of the manufacturer. The amount and the integrity of RNA were assessed by measurement of absorbance at 260 and 280 nm. Total RNA was reverse-transcribed into first-strand cDNA using iScript cDNA synthesis kit (Bio-Rad Laboratories, Inc.) according to the manufacturer. Quantitative PCR reactions were carried out in the iQ5 Multicolor Real-time PCR Detection System (Bio-Rad Laboratories, Inc.) as described (8). Certified RT^2 primer assays for rat GH, PRL and human PRL were purchased from SuperArray. Primer sequences (Invitrogen) were 5′-[…]-3′ (18S rRNA forward (F)), 5′-[…]-3′ (18S rRNA reverse (R)), 5′-[…]-3′ (human (3-actin F), 5′-[…]-3′ (human (3-actin R), 5′-[…]-3′ (human GAPDH F), 5′-[…]-3′ (human GAPDH R).
Human prolactinoma tissues were obtained at the time of surgery (Pituitary Center, Cedars-Sinai Medical Center) and transferred in 0.3% BSA containing DMEM according to an IRB-approved protocol. After washing with medium, tumor tissues were chopped with a sterile scalpel into approximately 1-2 mm pieces. Tissues were rinsed and digested with DMEM containing 0.3% BSA, 0.35% collagenase, and 0.15% hyaluronidase at 37° C. for 30 min The mixture was centrifuged at 1,500 rpm for 5 min at 4° C., and the cell pellet resuspended in an appropriate volume of culture medium containing 10% FBS and antibiotics in 48 well plates. After 24 hr incubation with serum depleted starvation medium (DMEM with 0.3% BSA), treatment agents were added with fresh serum-depleted medium (0.3% BSA), and medium collected for RIA. RNA was extracted after 24 hr treatment. Medium was also collected at baseline. To normalize for cell number effect, the PRL value of treated medium was divided by that of pre-treatment starvation medium to obtain a treated value for each well (n=4).

[1] = system: GH3 cells stably expressing HER2CA; assay: Realtime PCR of PRL and GH mRNA in GH3 stable transfectants; format: cell-based, rat; conditions: each respective transfectant (pcDNA3, HER2CA); 5 nM EGF or 6 nM HRG
Procedure: A. […] C. GH and PRL secretion in the culture medium determined by RIA. Hormone secretion levels were normalized for cell numbers, Values are mean±SEM. *p<0.05, **p<0.01. […] GH3 rat lacto-somatotroph tumor cells secreting PRL and GH were purchased from the American Type Culture Collection. HER2CA cells were generated by transfection with […]) purchased from Addgene (Addgene plasmid 16259). Stable colonies were selected in the presence of 500 μg/ml G418 (Invitrogen). A vector control cell line pcDNA3 was simultaneously established by transfecting pcDNA3 that lacked inserted cDNA. […] After synchronization by serum starvation (medium containing 0.2% bovine serum albumin for 24 h), cells with treatment agents was grown in fresh serum-depleted medium (0.2% bovine serum albumin), and samples collected at the indicated times. Total RNA was extracted with Trizol reagent (Invitrogen) according to instructions of the manufacturer. The amount and the integrity of RNA were assessed by measurement of absorbance at 260 and 280 nm. Total RNA was reverse-transcribed into first-strand cDNA using iScript cDNA synthesis kit (Bio-Rad Laboratories, Inc.) according to the manufacturer. Quantitative PCR reactions were carried out in the iQ5 Multicolor Real-time PCR Detection System (Bio-Rad Laboratories, Inc.) as described (8). […] Primer sequences (Invitrogen) were [NT] rRNA forward ([…] rRNA reverse ([NT] (human (3-actin [NT] (human (3-actin […]).

[2] = system: GH3 cells stably expressing HER2CA; assay: RIA of PRL and GH secretion in culture medium of GH3 stable transfectants; format: cell-based, rat; conditions: each respective transfectant (pcDNA3, HER2CA); 5 nM EGF or 6 nM HRG
Procedure: μM) for the indicated times, and Realtime PCR analysis performed. C. GH and PRL secretion in the culture medium determined by RIA. Hormone secretion levels were normalized for cell numbers, Values are mean±SEM. *p<0.05, **p<0.01.
GH3 rat lacto-somatotroph tumor cells secreting PRL and GH were purchased from the American Type Culture Collection. HER2CA cells were generated by transfection with pcDNA3-HER2CA (V654E) purchased from Addgene (Addgene plasmid 16259). Stable colonies were selected in the presence of 500 μg/ml G418 (Invitrogen). A vector control cell line pcDNA3 was simultaneously established by transfecting pcDNA3 that lacked inserted cDNA. After selection and propagation of stable transfectants, cells were cultured in DMEM/F12 medium containing 15% horse serum, 2.5% FBS, penicillin/streptomycin, and 500 μg/m G418. After synchronization by serum starvation (medium containing 0.2% bovine serum albumin for ˜24 h), cells with treatment agents was grown in fresh serum-depleted medium (0.2% bovine serum albumin), and samples collected at the indicated times.
RIAs for rat GH and PRL were performed in duplicate, using reagents provided by the National Hormone and Pituitary Program, National Institute of Diabetes and Digestive and Kidney Diseases (Harbor-UCLA Medical Center, Torrance, Calif., USA). Iodination of GH and PRL (5 μg) with iodine-125 (500 μCi) (PerkinElmer life & Analytical Sciences, Boston, Mass., USA) mixed with 0.1 mg Iodo-Gen (Pierce, Rockford, Ill.) was performed using 10-ml columns prepared by G-75 Sephadex (Sigma Chemical Co.). Low interspecies cross-reactivity of the GH and PRL assays were previously shown (8).

[3] = system: GH3 cells stably expressing HER2CA; assay: Soft agarose colony-forming assay, HER2CA transfectants; format: cell-based, rat; conditions: HER2CA transfectants, 10 d after seeding
Procedure: B. GH3 cells stably expressing HER2CA or pcDNA3 were plated (4,000 per well) in 96 well plates for the indicated times, and WST assay performed. C. […] Values are mean±SEM. *p<0.05, ** p<0.01, ^‡p<0.05 vs pcDNA3 control, ^†p<0.05 vs HER2CA control, ^‡‡p<0.05 vs pcDNA3 control, ^††p<0.05 vs HER2CA control.
Base layers consisting of growth medium containing 0.6% low-melting point agarose (Invitrogen) were poured onto 6-well plates and allowed to solidify. Cells (8×10^3 per well) were plated in triplicate in top layers consisting of growth medium containing 0.3% agarose. Seven to ten days later, cells were stained with 0.2% iodonitrotetrazolium chloride (Invitrogen), and colonies composed of 50 cells were counted manually in 5 randomly selected fields.

Compound | suppression of human PRL expression (human prolactinoma cells) | induction of PRL expression [1] | induction of PRL secretion [2] | enhancement of colony formation in soft agar [3]
N#CC(=C(/N)Sc1ccccc1N)/C(C#N)=C(\N)Sc1ccccc1N [U0126] | ~55% | – | – | –
EGF: epidermal growth factor, ErbB family receptor ligand, from Sigma (NSDSECPLSHDGYCLHDGVCMYIEALDKYACNCVVGYIGERCQYRDLKWWELR; Epidermal growth factor; UniProt P01133 971-1023, looked up) | – | approximately 2 fold | approximately 2 fold | ~8 fold
